Paper PMC10213797 (Acta Pharmaceutica Sinica. B, 2023)

Experiments:
hAChE = hAChE (Homo sapiens, UniProt P22303); experiment: hAChE inhibition, Ellman's method; type: biochemical
murine AChE = conditions: cited from earlier work
[1] = system: Electrophorus electricus AChE (eeAChE); conditions: cited from earlier work
[2] = system: horse serum BChE (eqBChE); conditions: cited from earlier work
hBChE = hBChE (Homo sapiens, UniProt P06276); experiment: hBChE inhibition, Ellman's method; type: biochemical; conditions: IC50 ± SEM hBChE, Table 1; n = 3, in triplicates
Chain of hBChE (P06276 29-602): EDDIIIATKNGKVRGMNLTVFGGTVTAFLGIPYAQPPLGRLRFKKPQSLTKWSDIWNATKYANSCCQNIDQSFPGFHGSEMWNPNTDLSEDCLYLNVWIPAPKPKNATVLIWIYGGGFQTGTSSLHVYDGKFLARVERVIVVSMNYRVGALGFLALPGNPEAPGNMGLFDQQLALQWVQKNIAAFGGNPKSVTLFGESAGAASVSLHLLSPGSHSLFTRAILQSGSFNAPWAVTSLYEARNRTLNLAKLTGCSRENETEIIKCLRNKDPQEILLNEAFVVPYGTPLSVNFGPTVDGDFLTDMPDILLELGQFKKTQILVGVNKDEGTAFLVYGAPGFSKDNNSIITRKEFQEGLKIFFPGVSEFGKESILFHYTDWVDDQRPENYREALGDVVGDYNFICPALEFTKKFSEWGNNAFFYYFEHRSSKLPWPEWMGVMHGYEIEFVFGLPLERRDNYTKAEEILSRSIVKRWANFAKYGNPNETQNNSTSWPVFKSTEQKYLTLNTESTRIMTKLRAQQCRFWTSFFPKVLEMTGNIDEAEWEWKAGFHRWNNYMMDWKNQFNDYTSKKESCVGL

hMAO-A = molecular target: T1, hMAO-A (Homo sapiens, UniProt P21397); experiment: hMAO-A inhibition, horseradish-Amplex Red coupled assay; type: biochemical
T1 sequence (P21397 1-527): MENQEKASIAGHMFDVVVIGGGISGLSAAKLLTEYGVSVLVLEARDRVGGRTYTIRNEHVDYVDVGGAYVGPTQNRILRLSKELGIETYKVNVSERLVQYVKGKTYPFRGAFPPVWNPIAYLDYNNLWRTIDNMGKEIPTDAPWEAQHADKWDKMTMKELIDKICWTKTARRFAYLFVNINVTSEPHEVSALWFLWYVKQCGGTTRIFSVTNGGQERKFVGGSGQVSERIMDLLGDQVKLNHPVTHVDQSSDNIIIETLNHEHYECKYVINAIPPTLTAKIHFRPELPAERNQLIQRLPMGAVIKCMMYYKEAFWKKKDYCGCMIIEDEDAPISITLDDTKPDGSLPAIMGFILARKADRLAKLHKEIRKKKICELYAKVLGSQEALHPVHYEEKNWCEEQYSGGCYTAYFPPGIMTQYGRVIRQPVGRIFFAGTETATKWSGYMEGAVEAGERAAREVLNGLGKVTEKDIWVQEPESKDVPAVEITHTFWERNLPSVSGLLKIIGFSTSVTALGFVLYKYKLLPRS

hMAO-B = molecular target: T2, hMAO-B (Homo sapiens, UniProt P27338); experiment: hMAO-B inhibition, horseradish-Amplex Red coupled assay; type: biochemical
T2 sequence (P27338 1-520): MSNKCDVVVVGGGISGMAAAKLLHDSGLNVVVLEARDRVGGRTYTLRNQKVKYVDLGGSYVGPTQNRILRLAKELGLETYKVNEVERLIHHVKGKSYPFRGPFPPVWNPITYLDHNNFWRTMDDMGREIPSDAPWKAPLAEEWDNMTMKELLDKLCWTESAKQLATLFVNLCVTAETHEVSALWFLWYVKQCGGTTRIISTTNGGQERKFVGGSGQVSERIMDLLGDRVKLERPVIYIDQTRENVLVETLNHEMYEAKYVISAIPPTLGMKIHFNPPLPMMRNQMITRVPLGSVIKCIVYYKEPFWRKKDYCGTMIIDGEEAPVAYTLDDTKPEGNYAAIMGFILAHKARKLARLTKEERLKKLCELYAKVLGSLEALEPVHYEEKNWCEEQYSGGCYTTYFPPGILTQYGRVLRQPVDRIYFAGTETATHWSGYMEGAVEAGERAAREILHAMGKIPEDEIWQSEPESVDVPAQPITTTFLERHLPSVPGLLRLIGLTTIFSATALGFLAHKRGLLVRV

[3] = DPPH radical-scavenging assay; conditions: means ± SEM (n = 2, in triplicates); for EC50: read-out: Radical-scavenging DPPH assay EC50
Aβ1–42 = Aβ1–42 (Homo sapiens, UniProt P05067); experiment: Aβ1–42 aggregation inhibition, ThT fluorescence assay; type: biochemical; conditions: 10 μmol/L ligand and 1.5 μmol/L Aβ1–42; mean ± SD (n ≥ 3)
Chain of Aβ1–42 (P05067 672-713): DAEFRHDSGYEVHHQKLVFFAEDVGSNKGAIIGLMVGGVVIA

BBB-PAMPA permeability = conditions: pH 7.4, 4 h, 25 °C, brain sink buffer; for Papp at 4 h, 100 μmol/L: PAMPA, pH 7.4, BBB–PAMPA permeability Papp (mean ± SD)
mice = experiment: Rotarod test; type: in vivo; conditions: 2.5 mg/kg
[4] = system: scopolamine-induced amnesic mice; experiment: Passive avoidance; type: in vivo; conditions: doses of one and 2 mg/kg; P < 0.001

Chain of hAChE (P22303 32-614): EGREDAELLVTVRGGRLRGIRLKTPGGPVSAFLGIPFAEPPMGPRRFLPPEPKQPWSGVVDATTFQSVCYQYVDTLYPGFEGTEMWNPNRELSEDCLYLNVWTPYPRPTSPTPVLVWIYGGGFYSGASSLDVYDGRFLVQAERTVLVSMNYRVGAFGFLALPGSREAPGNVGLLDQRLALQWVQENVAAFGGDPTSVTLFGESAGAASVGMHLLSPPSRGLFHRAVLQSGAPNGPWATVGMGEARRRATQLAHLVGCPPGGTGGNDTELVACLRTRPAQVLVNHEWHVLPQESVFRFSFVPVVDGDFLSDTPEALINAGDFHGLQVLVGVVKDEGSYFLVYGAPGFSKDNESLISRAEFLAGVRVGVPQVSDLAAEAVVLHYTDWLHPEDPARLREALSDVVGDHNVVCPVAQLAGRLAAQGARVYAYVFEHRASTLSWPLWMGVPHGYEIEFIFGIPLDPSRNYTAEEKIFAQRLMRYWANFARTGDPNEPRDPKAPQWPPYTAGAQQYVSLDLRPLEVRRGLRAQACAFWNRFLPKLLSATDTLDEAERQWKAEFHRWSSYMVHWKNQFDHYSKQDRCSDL

CC(C)(C)/[N+]([O-])=C/c1ccccc1 [PBN, α-phenyl-tert-butylnitrone]
hAChE inhibition (in words) (hAChE): no inhibition
murine AChE Ki′ (murine AChE): 2990 µM
Ki (murine AChE; read-out: murine AChE Ki): 580 µM
eeAChE inhibition (in words) [1]: no inhibition
IC50 ([2]; read-out: eqBChE IC50): 478 ± 38 µM

COc1cccc2cc(/C=[N+](\[O-])C(C)(C)C)c(OCCCN3CCCCC3)nc12 [QN 1, (Z)-N-tert-Butyl-1-(8-methoxy-2-(3-(piperidin-1-yl)propoxy)quinolin-3-yl)methanimine oxide]
IC50 (hBChE): 0.707 ± 0.0454 µM

COc1cccc2cc(/C=[N+](\[O-])Cc3ccccc3)c(OCCCN3CCCCC3)nc12 [QN 2, (Z)-N-Benzyl-1-(8-methoxy-2-(3-(piperidin-1-yl)propoxy)quinolin-3-yl)methanimine oxide]
IC50 (hAChE): 39.6 ± 6.1 µM
IC50 (hBChE): 0.415 ± 0.0167 µM

C#CCN1CCN(CCCOc2nc3c(OC)cccc3cc2/C=[N+](\[O-])C(C)(C)C)CC1 [QN 3, (Z)-N-tert-Butyl-1-(8-methoxy-2-(3-(4-(prop-2-yn-1-yl)piperazin-1-yl)propoxy)quinolin-3-yl)methanimine oxide]
IC50 (hBChE): 2.06 ± 0.04 µM

C#CCN1CCN(CCCOc2nc3c(OC)cccc3cc2/C=[N+](\[O-])Cc2ccccc2)CC1 [QN 4, (Z)-N-Benzyl-1-(8-methoxy-2-(3-(4-(prop-2-yn-1-yl)piperazin-1-yl)propoxy)quinolin-3-yl)methanimine oxide]
IC50 (hBChE): 3.06 ± 0.29 µM

CC(C)(C)/[N+]([O-])=C/c1cc2cccc(OCCCN3CCCCC3)c2nc1Cl [QN 5, (Z)-N-tert-Butyl-1-(2-chloro-8-(3-(piperidin-1-yl)propoxy)quinolin-3-yl)methanimine oxide]
IC50 (hMAO-A): 113 ± 13.2 µM
IC50 (hAChE): 44.7 ± 4.8 µM
IC50 (hBChE): 5.57 ± 0.46 µM

[O-]/[N+](=C\c1cc2cccc(OCCCN3CCCCC3)c2nc1Cl)Cc1ccccc1 [QN 6, (Z)-N-Benzyl-1-(2-chloro-8-(3-(piperidin-1-yl)propoxy)quinolin-3-yl)methanimine oxide]
IC50 (hMAO-A): 106 ± 3.7 µM
IC50 (hMAO-B): 50.4 ± 4.5 µM
IC50 (hAChE): 68.6 ± 13.6 µM
IC50 (hBChE): 10.2 ± 1.1 µM

C#CCN1CCN(CCCOc2cccc3cc(/C=[N+](\[O-])C(C)(C)C)c(Cl)nc23)CC1 [QN 7, (Z)-N-tert-Butyl-1-(2-chloro-8-(3-(4-(prop-2-yn-1-yl)piperazin-1-yl)propoxy)quinolin-3-yl)methanimine oxide]
IC50 (hBChE): 13.3 ± 0.9 µM

C#CCN1CCN(CCCOc2cccc3cc(/C=[N+](\[O-])Cc4ccccc4)c(Cl)nc23)CC1 [QN 8, (Z)-N-Benzyl-1-(2-chloro-8-(3-(4-(prop-2-yn-1-yl)piperazin-1-yl)propoxy)quinolin-3-yl)methanimine oxide]
IC50 (hMAO-A): 14.9 ± 1.2 µM
IC50 (hMAO-B): 13.8 ± 1.8 µM
IC50 (hBChE): 14.8 ± 2.1 µM

COc1cccc2cc(/C=[N+](\[O-])C(C)(C)C)c(Cl)nc12 [QN 9, (Z)-N-tert-Butyl-1-(2-chloro-8-methoxyquinolin-3-yl)methanimine oxide]
IC50 (hBChE): 15.2 ± 1.1 µM

CC(C)(C)/[N+]([O-])=C/c1cc2cccc(O)c2nc1Cl [QN 11, (Z)-N-tert-Butyl-1-(2-chloro-8-hydroxyquinolin-3-yl)methanimine oxide]
IC50 (hBChE): 12.4 ± 0.7 µM

[O-]/[N+](=C\c1cc2cccc(O)c2nc1Cl)Cc1ccccc1 [QN 12, (Z)-N-Benzyl-1-(2-chloro-8-hydroxyquinolin-3-yl)methanimine oxide]
IC50 (hBChE): 10.7 ± 0.7 µM

C#CCN1CCN(CCCOc2cccc3ccc(/C=[N+](\[O-])C(C)(C)C)nc23)CC1 [QN 15, (Z)-N-tert-Butyl-1-(8-(3-(4-(prop-2-yn-1-yl)piperazin-1-yl)propoxy)quinolin-2-yl)methanimine oxide]
Radical-scavenging DPPH assay EC50 [3]: n.a. ^d (n.a., not active–% DPPH reduced at 100 μmol/L concentration lower than 10%)
Inhibition of Aβ1–42 aggregation (Aβ1–42): n.i. ^e (n.i., no inhibition <20%)
Papp at 4 h, 100 μmol/L (BBB-PAMPA permeability): 72.2 ± 2.7 ×10⁻⁶ cm/s
BBB–PAMPA permeability −LogPe (BBB-PAMPA permeability): 4.1 log [cm/s]

CC(C)(C)/[N+]([O-])=C/c1ccc2cccc(O)c2n1 [QN 18, (Z)-N-tert-Butyl-1-(8-hydroxyquinolin-2-yl)methanimine oxide]
EC50 [3]: 119 ± 1.2 µM
Inhibition of Aβ1–42 aggregation (Aβ1–42): n.i. ^e (n.i., no inhibition <20%)
Papp at 4 h, 100 μmol/L (BBB-PAMPA permeability): 43.7 ± 4.1 ×10⁻⁶ cm/s
BBB–PAMPA permeability −LogPe (BBB-PAMPA permeability): 4.4 log [cm/s]

O=Cc1ccc2cccc(O)c2n1 [QN 30, 8-hydroxyquinoline-2-carbaldehyde]
IC50 (hMAO-B): 43.9 ± 3.4 µM

C#CCN1CCN(CCCOc2cccc3ccc(C=O)nc23)CC1 [QN 32, 8-(3-(4-(Prop-2-yn-1-yl)piperazin-1-yl)propoxy)quinoline-2-carbaldehyde]
Radical-scavenging DPPH assay EC50 [3]: n.a. ^d (n.a., not active–% DPPH reduced at 100 μmol/L concentration lower than 10%)
Inhibition of Aβ1–42 aggregation (Aβ1–42): 40.7 ± 2.4%∗
Papp at 4 h, 100 μmol/L (BBB-PAMPA permeability): 50.3 ± 2.8 ×10⁻⁶ cm/s
BBB–PAMPA permeability −LogPe (BBB-PAMPA permeability): 4.3 log [cm/s]

CNC1=Nc2ccc(Cl)cc2C(c2ccccc2)=[N+]([O-])C1 [chlordiazepoxide]
Ki ([1]; read-out: eeAChE Ki): 50 ± 7 µM
Ki ([2]; read-out: eqBChE Ki): 0.3 ± 0.04 µM

Oc1ccc(/C=C/c2cc(O)cc(O)c2)cc1 [resveratrol, reference compound]
EC50 [3]: 50.1 µM

CCN(C)C(=O)Oc1cccc([C@H](C)N(C)C)c1 [rivastigmine, reference compound]
motor effects shortly after administration (mice): caused muscle tremor and transient motor coordination deficits
step-through latency in retention trial versus scopolamine-treated control [4]: significant differences
